These results are taken from patent US10835516B2, “Protective, anti-inflammatory receptor and its use in preservation of mitochondrial function, wound healing and repair” (The Johns Hopkins University, priority 2011, dated 2020).

Molecules are shown by their SMILES. Where a chain is given by its changes, count along the chain named.

The target in data set [1] is T1, mtAT2R (Rattus norvegicus, UniProt P35351).
T1 construct: we examined effects on respiration in rat heart mitochondria; from tissue; host or cells: isolated rat heart or liver mitochondria
T1 sequence (P35351 1-363): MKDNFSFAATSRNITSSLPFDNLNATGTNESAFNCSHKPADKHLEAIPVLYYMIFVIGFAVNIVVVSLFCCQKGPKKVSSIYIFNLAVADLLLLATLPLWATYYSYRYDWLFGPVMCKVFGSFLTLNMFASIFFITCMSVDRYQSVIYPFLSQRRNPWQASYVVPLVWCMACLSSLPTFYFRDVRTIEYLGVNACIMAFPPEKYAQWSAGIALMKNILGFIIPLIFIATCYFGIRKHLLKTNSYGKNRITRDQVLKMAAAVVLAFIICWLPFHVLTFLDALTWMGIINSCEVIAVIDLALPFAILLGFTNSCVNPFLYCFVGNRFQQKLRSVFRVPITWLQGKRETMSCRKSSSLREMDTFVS
Put plainly: Mitochondrial respiration, isolated rat heart mitochondria (Seahorse XF96). It is filed as biochemical. How it is done: Mitochondrial Respiration. For monitoring respiration, isolated mitochondria from rat heart or liver (10 μg of protein per well) were aliquoted into 96 wells of a polyethyleneimine-coated XF96 cell culture microplate (Seahorse Bioscience). The plate was centrifuged at 3,000×g for 10 minutes at 4° C. in an A-4-62 rotor, which control experiments determined caused an attachment of isolated mitochondria that was sufficiently robust to withstand the mixing protocols of the machine. Mitochondria were placed in 300 μL per well of mitochondrial buffer [20 mM Hepes, 137 mM KCl, 2.5 mM MgCl2, 2 mM K2HPO4, 0.5 mM EGTA, and 0.2% (wt/vol) BSA (pH 7.3) at 37° C.]J. Plates were used immediately. The cell culture microplate was incubated and loaded into the Seahorse XF96 extracellular flux analyzer following the manufacturer's instructions. All experiments were performed at 37° C.
Oxygen consumption rate data points refer to the mean rates during the measurement cycles, which consisted of a mixing time of 30 s and a wait time of 2 minutes followed by a data acquisition period of 10 minutes (50 data points). […] The oxygen consumption rates were determined by using a compartment model-based deconvolution algorithm, which compensated for oxygen diffusion phenomena occurring around the entrapped volume and for the response time of the probe. […]

For data set [2], the target named is T2, mtAT2R (Mus musculus, UniProt P35374).
T2 construct: from tissue; host or cells: isolated kidney mitochondria
T2 sequence (P35374 1-363): T1 sequence (P35351 1-363) with L18R, A40S, V88L, S352G
Put plainly: NO production in isolated kidney mitochondria (NO fluorescent probe). The conditions noted are these: PD-123319 1 μM; P<0.01. It is filed as biochemical. How it is done:
Measurement of Nitric Oxide (NO) Production in Isolated Mitochondria. Kidney mitochondria were isolated by homogenization and differential centrifugation in a medium containing […] of 1 M sucrose, 12 mL of 1 M mannitol, 2.5 mL of 1 M KCL, 1 M Tris-HCL, 0.5 mL of 1 M EDTA, 1.5 mL of 0.1 M EGTA, and 0.1% BSA (pH 7.4). Mitochondria were suspended in incubation solution. Total mitochondrial protein was determined by a Lowry Protein Assay Kit (Sigma-Aldrich). […] The fluorescent products were measured by using a reader equipped with Cyanine 5 (650/670 nm).
AT2Rs Modulate Mitochondrial NO Production. To determine whether mtAT2R activation might modulate mitochondrial NO production in a manner analogous to the actions of non-mtAT2Rs on other NO isoforms, the direct effects of AT2R agonists and antagonists were determined on isolated kidney mitochondria. […] Fluorescence signal was measured by using a multimode microplate reader equipped with Cyanine 5 (650/670 nm). Treatment of mitochondria with CGP421140 caused a concentration-dependent increase in mitochondrial NO production (FIG. 6A); specifically, 10 nM was sufficient to stimulate NO production [from 0.52±0.0009 fluorescence arbitrary units (AU) at baseline control to 0.6+0.01 AU, P<0.001]. […]

The test system of data set [3] is mtAT2R. The data set can be described thus: Immunoelectron microscopy of mtAT2R in kidney tubular cells of aged mice on chronic losartan. The conditions noted are these: 70-wk-old mice, losartan 40-60 mg/kg per day for 20 wk; aged untreated 10.2+2.2, young 25.5+6.2. The format is in vivo, C57BL/6 mice. As to the method:
(§1) Immunolocalization of AT1R, AT2R, and Ang. Immunogold electron microscopy was performed as described (Am. J. Physiol. Endocrinot. Metab., 286:E1011-E1022 (2004)). In brief, mouse tissues were fixed in 4% formaldehyde in 0.1 M sodium cacodylate supplemented with 3% sucrose (wt/vol) and 3 mM CaCl2 and cryoprotected in 2.3 M sucrose overnight in polyvinylpyrrolidone (Sigma). Ultrathin sections were cut on a Leica Ultracut UCT microtome, and sections were placed on Formvar-coated nickel 200-mesh hexagonal grids. The sections were incubated in primary antibody against rabbit anti-AT2R, goat anti-Ang, or goat anti-AT1R antibody overnight at 4° C. at a concentration of 10 μg/mL. […] Primary antibodies were detected with either 6-nm colloidal gold donkey anti-goat or 12-nm colloidal goat anti-rabbit (Jackson ImmunoResearch) diluted 1:20 in PBS for 1 hour. Final contrasting of the sections was done by incubating them in 2% methyl cellulose (Sigma) and 0.3% uranyl acetate (Ted Pella) for 10 min at 4° C. All sections were viewed with a Philips CM 120 TEM transmission electron microscope at an accelerating voltage of 80 kV. Images were taken with a Gatan Orius SC 1000 digital camera. Photographs for representative sections were taken.

The test system of a further data set is wounds. Put plainly: Wound healing in db/db mice, losartan started at different phases. The format is in vivo, BKS.Cg-m+/+Lepr^db/J(db/db) mice. Particulars: 8 week old db/db mice; preliminary data.
A further data set relates to 8-mm excisional wounds. The data set can be described thus: Full thickness excisional wound healing, daily topical cream. The format is in vivo, mice. Particulars: after three days of treatment, FIG. 8. As to the method:
For wound-healing experiments, animal procedures were approved by the Johns Hopkins University Animal Care and Use Committee. During the experiments the animals were-housed one per cage, maintained under controlled environmental conditions (12 hours light to dark cycle, temperature approximately 23° C.), and provided with standard laboratory food and water ad libitum. 16 male mice with average weight of 30 g were divided into two groups. Mice were anesthetized with ketamine hydrochloride (100 mg/kg) and xylazine (10 mg/kg), and the dorsum was shaved and then treated with a depilatory (Nair cream, Church & Dwight Co., Princeton, N.J.). Two symmetrical full thickness excisional wounds created on their back using an 8-mm punch biopsy instrument. No dressing was used after burn. The animals were resuscitated according to the Parkland formula (4 mL/kg/percent body area) by intraperitoneal injection of saline within 1 hour after wound. Animals were divided into two groups; A and B. One group received daily application of an angiotensin receptor blocker cream to both wounds per animal and the other received vehicle. Researchers were blinded to the identity of the cream applied. We used digital photography and computerized planimetry to assess the rate of wound healing in either group.

The next data set relates to mtAT1R. The data set can be described thus: Immunoelectron microscopy of mtAT1R in kidney tubular cells of aged mice on chronic losartan. Particulars: 70-wk-old mice, losartan 40-60 mg/kg per day for 20 wk; aged untreated 12.7+5.8, young 2.0+2.2. It is filed as in vivo, C57BL/6 mice. How it is done:
as §1

Data set [4] is described as follows: Blood pressure and general health of mice on chronic losartan.
Method: Human and Animal Groups. Mitochondria were studied in adult human monocytes (20-30 y old), adult human skeletal muscle tissue, adult rats (24 wk old), adult (20 wk old) and aged (70 wk old) mice, and a human cell line. Adult mice at 50 wk of age were treated with the AT1R blocker losartan at doses of 40-60 mg/kg per day for 20 wk. All experiments were approved by the Johns Hopkins Animal Care and use Committee and the Johns Hopkins Institutional Review Board. Weight, blood urea nitrogen, creatinine, and albumin were measured in adult (20 wk) and aged (70 wk) mice and in aged mice on losartan treatment. […] We visually inspected each animal carcass after the dissection for any abnormalities.

As for `COC(=O)[C@@H](N)CCCNC(=N)N[N+](=O)[O-]` [L-NAME, L-N^G-nitroarginine methyl ester], the “CGP421140-inhibited state 3 respiration reversed by L-NAME” value at mtAT2R [1] (100 nM CGP421140 + L-NAME 1 μM, P<0.05) was determined as 67.4±4.3 pmol/min per μg.

`Cc1cc(Cn2cnc3c2C[C@@H](C(=O)O)N(C(=O)C(c2ccccc2)c2ccccc2)C3)ccc1N(C)C` [PD-123319]: the “CGP421140-inhibited state 3 respiration restored by PD-123319” value at mtAT2R [1] (100 nM CGP421140 + PD-123319 1 μM, P<0.01) is 66.83±2.1 pmol/min per μg. The “CGP421140-stimulated NO production after pretreatment with PD-123319” value on mtAT2R [2] is 0.55±0.006 AU.

As to `CCCCc1nc(Cl)c(CO)n1Cc1ccc(-c2ccccc2-c2nn[nH]n2)cc1` [losartan], the mtAT2R expression in the data set on mtAT2R [3] is given as 39.0+2.6 gold-labeled AT2R per mitochondrion. Also, in the data set on wounds, the “healing and elasticity, treatment starting at day 7 compared to day 1” value is “accelerated healing and improved elasticity”. In addition, in the data set with 8-mm excisional wounds, the “wound granulation versus vehicle” value is on record as “more granulation”. In the data set on mtAT1R, the mtAT1R expression is reported as 11.0+2.1 gold-labeled AT1R per mitochondrion. Besides, the “evidence of malignancy on carcass inspection” value in data set [4] (10 animals per group) is recorded as “did not observe any evidence of malignancy”. Moreover, the “weight, blood urea nitrogen, creatinine, and albumin” value in data set [4] (adult, aged and aged mice on losartan, data not shown) was “no significant difference”. Further, the “decrease in blood pressure” value in data set [4] (losartan 40-60 mg/kg per day for 20 wk) is listed as 10-15%.
